According to patent US20190134005A1 (BioMarin Pharmaceutical Inc., priority 2016, published 2019):
pIC50: −log10 of the molar value.

molecular target: T1, human CGT (Homo sapiens, UniProt Q16880); assay: CGT Enzyme Assay (Biological Example 2, RapidFire/MS/MS method with 0.01% Tween 80 added); format: biochemical; details: enzymatic assay, CHO/CGT lysate
T1 sequence (Q16880 21-541): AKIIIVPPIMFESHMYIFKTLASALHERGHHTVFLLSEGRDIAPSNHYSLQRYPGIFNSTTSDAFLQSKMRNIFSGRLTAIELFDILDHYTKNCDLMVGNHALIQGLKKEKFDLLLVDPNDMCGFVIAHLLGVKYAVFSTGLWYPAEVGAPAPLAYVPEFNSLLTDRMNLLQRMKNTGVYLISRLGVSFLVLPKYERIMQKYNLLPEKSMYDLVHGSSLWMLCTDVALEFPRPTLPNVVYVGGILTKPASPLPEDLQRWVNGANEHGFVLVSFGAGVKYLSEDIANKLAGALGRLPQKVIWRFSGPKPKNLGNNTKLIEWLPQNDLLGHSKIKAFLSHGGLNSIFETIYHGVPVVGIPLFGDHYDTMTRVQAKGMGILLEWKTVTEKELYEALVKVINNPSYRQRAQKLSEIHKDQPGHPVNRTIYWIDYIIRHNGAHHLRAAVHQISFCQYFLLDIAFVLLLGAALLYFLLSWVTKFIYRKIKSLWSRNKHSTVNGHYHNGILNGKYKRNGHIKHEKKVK
Summary of the method: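 Lysate of CHO cells transfected with full-length human CGT, 0.5% DMSO final, 0.01% Tween 80 added; reactions stopped with methanol:acetonitrile holding internal standard. C6-NBD-dihydro-galactosylceramide and C6-NBD-dihydro-ceramide measured by RapidFire/MS/MS (ESI negative), product peak area normalized to internal standard.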

| SMILES | pIC50 |
| --- | --- |
| CCC[C@]1(C)[C@@H](c2cccc(OC(F)(F)F)c2)N(c2ccc(Cl)cc2)C(=O)N1c1ccc(Cl)cc1 [Example 22-2, (4R,5R)-1,3-bis(4-chlorophenyl)-4-methyl-4-propyl-5-(3-(trifluoromethoxy)phenyl)imidazolidin-2-one] | > 6.00 |
| COC[C@]1(C)[C@H](c2cccc(C#N)c2)N(c2ccc(Cl)cc2)C(=O)N1c1ccc(Cl)cc1 [Example 38-2, 3-((4S,5S)-1,3-bis(4-chlorophenyl)-5-(methoxymethyl)-5-methyl-2-oxoimidazolidin-4-yl)benzonitrile] | > 6.00 |
| Cc1ccc(N2C(=O)N(c3ccc(C#N)cc3)C3(COC3)[C@H]2c2cccc(OC(F)(F)F)c2)cc1 [Example 43-1, (R)-4-(6-oxo-7-(p-tolyl)-8-(3-(trifluoromethoxy)phenyl)-2-oxa-5,7-diazaspiro[3.4]octan-5-yl)benzonitrile] | 5.00 to 6.00 |
| CC1(C)[C@@H](c2cccc(OC(F)(F)F)c2)N(c2ccccc2)C(=O)N1c1ccccc1 [Example 26-1, (R)-4,4-dimethyl-1,3-diphenyl-5-(3-(trifluoromethoxy)phenyl)imidazolidin-2-one] | 4.52 to 5.00 |
| Cc1ccc(N2C(=O)N(c3ccc(C#N)cc3)C3(COC3)[C@@H]2c2cccc(C#N)c2)cc1 [Example 57-2, (S)-3-(5-(4-cyanophenyl)-6-oxo-7-(p-tolyl)-2-oxa-5,7-diazaspiro[3.4]octan-8-yl)benzonitrile] | > 6.00 |
| Cc1ccc(N2C(=O)N(c3ccc(C)cc3)C3(COC3)[C@H]2c2cccc(C#N)c2)cc1 [Example 32-1, (R)-3-(6-oxo-5,7-di-p-tolyl-2-oxa-5,7-diazaspiro[3.4]octan-8-yl)benzonitrile] | 4.52 to 5.00 |
| C[C@@]1(C(F)(F)F)[C@H](c2cccc(OC(F)(F)F)c2)N(c2ccc(Br)cc2)C(=O)N1c1ccc(C#N)cc1 [Example 44-1, 4-((4S,5S)-3-(4-bromophenyl)-5-methyl-2-oxo-4-(3-(trifluoromethoxy)phenyl)-5-(trifluoromethyl)imidazolidin-1-yl)benzonitrile] | 5.00 to 6.00 |
| CC[C@@]1(C)[C@H](c2cccc(OC(F)(F)F)c2)N(c2ccc(C#N)cc2)C(=O)N1c1ccc(C#N)cc1 [Example 51-5, 4,4′-((4S,5S)-4-ethyl-4-methyl-2-oxo-5-(3-(trifluoromethoxy)phenyl)imidazolidine-1,3-diyl)dibenzonitrile] | 5.00 to 6.00 |
| CC1(C)[C@@H](c2cccc(OC(F)(F)F)c2)N(c2ccc(Cl)cc2)C(=O)N1c1ccc(Cl)cc1 [Example 7-1, (R)-1,3-bis(4-chlorophenyl)-4,4-dimethyl-5-(3-(trifluoromethoxy)phenyl)imidazolidin-2-one] | 5.00 to 6.00 |
| N#Cc1ccc(N2C(=O)N(c3ccc(Cl)cc3)[C@@H](c3cccc(OC(F)(F)F)c3)C23COC3)cc1 [Example 46-2, (S)-4-(7-(4-chlorophenyl)-6-oxo-8-(3-(trifluoromethoxy)phenyl)-2-oxa-5,7-diazaspiro[3.4]octan-5-yl)benzonitrile] | 5.00 to 6.00 |
| CCC[C@@]1(C)[C@H](c2cccc(OC(F)(F)F)c2)N(c2ccc(Cl)cc2)C(=O)N1c1ccc(Cl)cc1 [Example 22-5, (4S,5S)-1,3-bis(4-chlorophenyl)-4-methyl-4-propyl-5-(3-(trifluoromethoxy)phenyl)imidazolidin-2-one] | 4.52 to 5.00 |
| N#Cc1cccc([C@]23CCCC[C@H]2N(c2ccc(Cl)cc2)C(=O)N3c2ccc(Cl)cc2)c1 [Example 14-1, 3-((3aR,7aR)-1,3-bis(4-chlorophenyl)-2-oxooctahydro-3aH-benzo[d]imidazol-3a-yl)benzonitrile] | 5.00 to 6.00 |

The next lines start with the values.

| pIC50 | SMILES |
| --- | --- |
| > 6.00 | CC1(C)[C@H](c2cccc(C(F)(F)F)c2)N(c2ccc(Cl)cc2)C(=O)N1c1ccc(Cl)cc1 [Example 6-2, (S)-1,3-bis(4-chlorophenyl)-4,4-dimethyl-5-(3-(trifluoromethyl)phenyl)imidazolidin-2-one] |
| 4.52 to 5.00 | C[C@]1(C(F)(F)F)[C@@H](c2cccc(OC(F)(F)F)c2)N(c2ccc(C#N)cc2)C(=O)N1c1ccc(C#N)cc1 [Example 39-2, 4,4′-((4R,5R)-4-methyl-2-oxo-5-(3-(trifluoromethoxy)phenyl)-4-(trifluoromethyl)imidazolidine-1,3-diyl)dibenzonitrile] |
| 5.00 to 6.00 | COC[C@@]1(C)[C@@H](c2cccc(OC(F)(F)F)c2)N(c2ccc(Cl)cc2)C(=O)N1c1ccc(Cl)cc1 [Example 37-1, (4R,5R)-1,3-bis(4-chlorophenyl)-4-(methoxymethyl)-4-methyl-5-(3-(trifluoromethoxy)phenyl)imidazolidin-2-one] |
| > 6.00 | O=C1N(c2ccc(Cl)cc2)[C@H](c2cccc(OC(F)(F)F)c2)C2(CCCC2)N1c1ccc(Cl)cc1 [Example 15-2, (R)-1,3-bis(4-chlorophenyl)-4-(3-(trifluoromethoxy)phenyl)-1,3-diazaspiro[4.4]nonan-2-one] |
| 4.00 to 4.52 | O=C1N(c2ccc(Br)cc2)C2CCCCC2N1c1ccc(Br)cc1 (centres unmarked) [Example 1] |
| 4.52 to 5.00 | Cc1ccc(N2C(=O)N(c3ccc(C#N)cc3)[C@@H](c3cccc(OC(F)(F)F)c3)C2(C)C)cc1 [Example 50-2, (S)-4-(4,4-dimethyl-2-oxo-3-(p-tolyl)-5-(3-(trifluoromethoxy)phenyl)imidazolidin-1-yl)benzonitrile] |
| > 6.00 | Cc1ccc(N2C(=O)N(c3ccc(Cl)cc3)[C@@H](c3cccc(OC(F)(F)F)c3)C23COC3)cc1 [Example 49-2] |
| > 6.00 | CCC[C@]1(C)[C@H](c2cccc(OC(F)(F)F)c2)N(c2ccc(C#N)cc2)C(=O)N1c1ccc(C#N)cc1 [Example 52-2, 4,4′-((4R,5S)-4-methyl-2-oxo-4-propyl-5-(3-(trifluoromethoxy)phenyl)imidazolidine-1,3-diyl)dibenzonitrile] |
| 5.00 to 6.00 | CC[C@]1(C)[C@@H](c2cccc(C#N)c2)N(c2ccc(Cl)cc2)C(=O)N1c1ccc(Cl)cc1 [Example 34-2, 3-((4R,5R)-1,3-bis(4-chlorophenyl)-5-ethyl-5-methyl-2-oxoimidazolidin-4-yl)benzonitrile] |
| > 6.00 | N#Cc1cccc(C23CCCCC2N(c2ccc(Cl)cc2)C(=O)N3c2ccc(Cl)cc2)c1 (centres unmarked) [Example 14] |
| 4.52 to 5.00 | CC1(C)[C@H](c2cccc(C#N)c2)N(c2ccc(C(F)(F)F)cc2)C(=O)N1c1ccc(C(F)(F)F)cc1 [Example 24-2, (S)-3-(5,5-dimethyl-2-oxo-1,3-bis(4-(trifluoromethyl)phenyl)imidazolidin-4-yl)benzonitrile] |
| > 6.00 | C[C@H]1[C@H](c2cccc(OC(F)(F)F)c2)N(c2ccc(Br)cc2)C(=O)N1c1ccc(Br)cc1 [Example 11-2, (4S,5S)-1,3-bis(4-bromophenyl)-4-methyl-5-(3-(trifluoromethoxy)phenyl)imidazolidin-2-one] |
| 4.52 to 5.00 | O=C1N(c2ccc(Cl)cc2)C2CCOC[C@]2(c2cccc(OC(F)(F)F)c2)N1c1ccc(Cl)cc1 (stereo partly drawn) [Example 31-1, (3aR)-1,3-bis(4-chlorophenyl)-3a-(3-(trifluoromethoxy)phenyl)hexahydropyrano[3,4-d]imidazol-2(3H)-one] |
| > 6.00 | CC1(C)[C@@H](c2cccc(C#N)c2)N(c2ccc(C(F)(F)F)cc2)C(=O)N1c1ccc(C(F)(F)F)cc1 [Example 24-1, (R)-3-(5,5-dimethyl-2-oxo-1,3-bis(4-(trifluoromethyl)phenyl)imidazolidin-4-yl)benzonitrile] |
